The values that follow come from PMC2654404 (Journal of molecular biology, 2008).

“And” between values parts separate entries of the source, which are not always exact repeats. Identical values can stand only once. Like-named read-outs stand apart in the source and are kept apart here. Marks after values point to notes of the source that are not given here.

Test [1] addresses T1, B. anthracis NMAT (Bacillus anthracis, UniProt C3L5T6). The test is classed as biochemical.
In test [2] the target is T1, B. anthracis NMAT. The test is classed as biochemical. This is another data set of the same source.
In test [3] the target is T1, B. anthracis NMAT. Format: biochemical. This is another data set of the same source.
Test [4] concerns native B. anthracis NMAT. The test is classed as biochemical. The conditions noted are these: pH 7.5.
In test [5] the test system is (His)6-tag B. anthracis NMAT. The test is classed as biochemical, Bacillus anthracis.
In test [6] the test system is (His)6-tag B. anthracis NMAT. Format: biochemical, Bacillus anthracis. The source holds these as a separate data set.
Test [7] deals with T1, B. anthracis NMAT. The test is described as follows: biochemical. The test is classed as binding.
Test [8] concerns native B. anthracis NMAT. The test is classed as biochemical, Bacillus anthracis. The conditions noted are these: pH 7.5.
The target of test [9] is (His)6-tagged NMAT (Bacillus anthracis, UniProt C3L5T6).
Chain of (His)6-tagged NMAT (C3L5T6 whole entry, looked up): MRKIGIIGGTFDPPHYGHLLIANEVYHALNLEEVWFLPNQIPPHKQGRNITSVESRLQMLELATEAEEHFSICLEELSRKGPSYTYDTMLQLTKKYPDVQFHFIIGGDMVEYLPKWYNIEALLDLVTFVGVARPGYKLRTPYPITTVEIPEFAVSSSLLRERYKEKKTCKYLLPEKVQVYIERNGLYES
[10] abbreviates: read-out: KD2 (dissociation constant, second site), pH 7.5.

T1 sequence (C3L5T6 whole entry, looked up): as above

`O=C(O)c1cccnc1C(=O)O` [quinolic acid]: the “ability to activate or inhibit the NMAT reaction” value in test [1] is recorded as “None of these compounds were observed to have an effect”.
Consider `Nc1ccn([C@@H]2O[C@H](COP(=O)(O)OP(=O)(O)O)[C@@H](O)[C@H]2O)c(=O)n1` [CDP, cytidine diphosphate], for which the “ability to serve as substrate for NMAT in place of ATP” value (from here on “ability to serve as substrate”) in test [2] was “Only CTP and dATP were able to serve as substrates”.
Turning to `Nc1nc2c(ncn2[C@@H]2O[C@H](COP(=O)(O)OP(=O)(O)OP(=O)(O)O)[C@@H](O)[C@H]2O)c(=O)[nH]1` [GTP, guanosine triphosphate], the “ability to serve as substrate” value in test [2] is “Only CTP and dATP were able to serve as substrates”.
For the molecule `Nc1ncnc2c1ncn2[C@@H]1O[C@H](COP(=O)(O)O)[C@@H](O)[C@H]1O` [AMP], the “ability to activate or inhibit the NMAT reaction” value in test [1] was “None of these compounds were observed to have an effect”. For the same molecule, the “ability to serve as substrate” value in [2] was “Only CTP and dATP were able to serve as substrates”.
For `NC(=O)c1ccc[n+]([C@@H]2O[C@H](COP(=O)([O-])O)[C@@H](O)[C@H]2O)c1` [NMN, nicotinamide mononucleotide], the “activity of NMAT with the mononucleotide as substrate” value in [3] is reported as “little to no activity”. For the same molecule, in [1], the “ability to activate or inhibit the NMAT reaction” value was “None of these compounds were observed to have an effect”.
Take `Nc1ncnc2c1ncn2[C@H]1C[C@H](O)[C@@H](COP(=O)(O)OP(=O)(O)OP(=O)(O)O)O1` [dATP, Deoxyadenosine triphosphate]: the “ability to serve as substrate” value in [2] is “able to serve as substrates”.
On to `Nc1ncnc2c1ncn2[C@@H]1O[C@H](COP(=O)(O)OP(=O)(O)OP(=O)(O)O)[C@@H](O)[C@H]1O` [ATP, adenosine triphosphate], for which, in [4], the kcat was 973 ± 120 ^c min^−1 and 702 ± 20 ^d min^−1; the “nH (Hill coefficient)” value is listed as 0.621 ± 0.007 ^c. For the same molecule, the K0.5 in [5] (pH 7.5) was 142 ± 28 μM and 142 ± 28 ^c μM and 79 ± 6 ^d μM. In addition, the “difference in K0.5 between the continuous and discontinuous assays” value in [6] is recorded as around 4 fold. For the same molecule, the Kd in test [7] was determined as 215 µM. Moreover, in test [7] (pH 7.5), the ΔH1 result is recorded as “ΔH1= −5348 ± 216 cal/mol”, the ΔH2 entry is recorded as “ΔH2= −1.4E4 ± 350 cal/mol”, the ΔS1 result is listed as “ΔS1= −1.2 cal/mol*K” and the ΔS2 entry is reported as “ΔS2= −36 cal/mol*K”. Further, the Kd in test [7] (setting [10]) worked out at 3720 µM. For the same molecule, in test [8], the kcat was 1240 ± 111 ^c min^−1 and 864 ± 19 ^d min^−1; the “nH (Hill coefficient)” value is 0.661 ± 0.004 ^c.
With `O=c1ccn([C@@H]2O[C@H](COP(=O)(O)OP(=O)(O)O)[C@@H](O)[C@H]2O)c(=O)[nH]1` [UDP, uridine diphosphate], in test [2], the “ability to serve as substrate” value is “Only CTP and dATP were able to serve as substrates”.
As to `OCC(O)CO` [glycerol], the “effect of 10% glycerol on the steady-state kinetic parameters of ATP and NaMN” value in test [5] is on record as “no significant change in the kinetic parameters”.
In the case of `O=C(CO)COP(=O)(O)O` [DHAP, dihydroxyacetone phosphate], the “ability to activate or inhibit the NMAT reaction” value in [1] was “None of these compounds were observed to have an effect”.
On to `Nc1ncnc2c1ncn2[C@@H]1O[C@H](COP(=O)(O)OP(=O)(O)O)[C@@H](O)[C@H]1O` [ADP], for which the “ability to activate or inhibit the NMAT reaction” value in test [1] was “None of these compounds were observed to have an effect”. The “ability to serve as substrate” value in test [2] was “Only CTP and dATP were able to serve as substrates”.
Consider `Nc1ccn([C@@H]2O[C@H](COP(=O)(O)OP(=O)(O)OP(=O)(O)O)[C@@H](O)[C@H]2O)c(=O)n1` [CTP, cytidine triphosphate], for which the “ability to serve as substrate” value in [2] was “able to serve as substrates”.
“nicotinamide adenine dinucleotide phosphate [NADP]”: the “ability to activate or inhibit the NMAT reaction” value in test [1] is given as “None of these compounds were observed to have an effect”.
For the molecule `Nc1nc2c(ncn2[C@@H]2O[C@H](COP(=O)(O)OP(=O)(O)O)[C@@H](O)[C@H]2O)c(=O)[nH]1` [GDP, guanosine diphosphates], the “ability to serve as substrate” value in test [2] is “Only CTP and dATP were able to serve as substrates”.
On to `Cc1cn([C@H]2C[C@H](O)[C@@H](COP(=O)(O)OP(=O)(O)O)O2)c(=O)[nH]c1=O` [TDP, thymidine diphosphate], for which, in [2], the “ability to serve as substrate” value is “Only CTP and dATP were able to serve as substrates”.
Turning to `O=P(O)(O)OC[C@H]1O[C@H](OP(=O)(O)OP(=O)(O)O)[C@H](O)[C@@H]1O` [PRPP, 5-phospho-ribose-1-pyrophosphate], in [1], the “ability to activate or inhibit the NMAT reaction” value was “None of these compounds were observed to have an effect”.
Regarding `NC(=O)c1ccc[n+]([C@@H]2O[C@H](COP(=O)([O-])OP(=O)(O)OC[C@H]3O[C@@H](n4cnc5c(N)ncnc54)[C@H](O)[C@@H]3O)[C@@H](O)[C@H]2O)c1` [NAD, nicotinamide adenine dinucleotide], the “ability to activate or inhibit the NMAT reaction” value in test [1] is “None of these compounds were observed to have an effect”.
Turning to `O=c1ccn([C@@H]2O[C@H](CO[P@@](=O)(O)O[P@@](=O)(O)OP(=O)(O)O)[C@@H](O)[C@H]2O)c(=O)[nH]1` (stereo in doubt) [UTP, uridine triphosphate], the “ability to serve as substrate” value in test [2] is “Only CTP and dATP were able to serve as substrates”.
The same measure, in the same setting: to `O=c1[nH]cnc2c1ncn2[C@@H]1O[C@H](COP(=O)(O)OP(=O)(O)O)[C@@H](O)[C@H]1O` [IDP, inosine diphosphate] belongs “Only CTP and dATP were able to serve as substrates”.
Turning to `Nc1ncnc2c1ncn2[C@@H]1O[C@H](COP(=O)(O)OP(=O)(O)OC[C@H]2O[C@@H]([n+]3cccc(C(=O)O)c3)[C@H](O)[C@@H]2O)[C@@H](O)[C@H]1O` [NaAD, nicotinate adenine dinucleotide], in test [9], the “pattern of inhibition by the reaction product, ATP as variable substrate” value was “competitive inhibition” and the “pattern of inhibition by the reaction product, NaMN as variable substrate” value is recorded as “competitive inhibition”. In addition, in [7] (pH 7.5), the Stoichiometry to monomer came out at 0.924 ± 0.003, the ΔH was -6.446 ± 0.03 kcal/mol and the ΔS entry is on record as “ΔS=3.5 cal/mol*K”. The Kd in test [7] (read-out: KD (dissociation constant), pH 7.5) is 3.2 ± 0.8 µM.
On to `O=C(O)c1ccc[n+]([C@@H]2O[C@H](COP(=O)(O)O)[C@@H](O)[C@H]2O)c1` [NaMN, nicotinate mononucleotide], for which, in test [4], the K0.5 is 16 ± 1 ^c μM and 15 ± 1 ^d μM; the kcat is 815 ± 12 ^c min^−1 and 782 ± 7 ^d min^−1; the “nH (Hill coefficient)” value was 0.806 ± 0.004 ^c. Also, the “difference in K0.5 between the continuous and discontinuous assays” value in test [6] is listed as around 4 fold. Moreover, in test [7] (pH 7.5), the ΔH1 result is “ΔH1= −5385 ± 47 cal/mol”, the ΔH2 result is on record as “ΔH2= −3954 ± 183 cal/mol”, the ΔS1 result was “ΔS1= −2.4 cal/mol*K” and the ΔS2 entry is recorded as “ΔS2= −3.9 cal/mol*K”. Further, the Kd in test [7] (read-out: KD1 (dissociation constant, first site), pH 7.5) is 382 µM. The Kd in test [7] (setting [10]) was 9210 µM. In addition, in [8], the K0.5 is 110 ± 18 ^c μM and 65 ± 5 ^d μM; the kcat was 1059 ± 49 ^c min^−1 and 890 ± 16 ^d min^−1; the “nH (Hill coefficient)” value is given as 0.708 ± 0.004 ^c.
Take `N[C@@H](CC(=O)O)C(=O)O` [L-aspartic acid]: in test [1], the “ability to activate or inhibit the NMAT reaction” value is “None of these compounds were observed to have an effect”.
